According to ChEMBL document CHEMBL1150976, “The selectivity of protein kinase inhibitors: a further update” (Biochem J, 2007):

Experiments:
[1] = biological target: T1, Inhibitor of nuclear factor kappa-B kinase subunit beta (Homo sapiens) (UniProt O14920); assay: Percentage IKK-beta activity remaining in the presence of 0.01uM inhibitor
T1 sequence (whole entry): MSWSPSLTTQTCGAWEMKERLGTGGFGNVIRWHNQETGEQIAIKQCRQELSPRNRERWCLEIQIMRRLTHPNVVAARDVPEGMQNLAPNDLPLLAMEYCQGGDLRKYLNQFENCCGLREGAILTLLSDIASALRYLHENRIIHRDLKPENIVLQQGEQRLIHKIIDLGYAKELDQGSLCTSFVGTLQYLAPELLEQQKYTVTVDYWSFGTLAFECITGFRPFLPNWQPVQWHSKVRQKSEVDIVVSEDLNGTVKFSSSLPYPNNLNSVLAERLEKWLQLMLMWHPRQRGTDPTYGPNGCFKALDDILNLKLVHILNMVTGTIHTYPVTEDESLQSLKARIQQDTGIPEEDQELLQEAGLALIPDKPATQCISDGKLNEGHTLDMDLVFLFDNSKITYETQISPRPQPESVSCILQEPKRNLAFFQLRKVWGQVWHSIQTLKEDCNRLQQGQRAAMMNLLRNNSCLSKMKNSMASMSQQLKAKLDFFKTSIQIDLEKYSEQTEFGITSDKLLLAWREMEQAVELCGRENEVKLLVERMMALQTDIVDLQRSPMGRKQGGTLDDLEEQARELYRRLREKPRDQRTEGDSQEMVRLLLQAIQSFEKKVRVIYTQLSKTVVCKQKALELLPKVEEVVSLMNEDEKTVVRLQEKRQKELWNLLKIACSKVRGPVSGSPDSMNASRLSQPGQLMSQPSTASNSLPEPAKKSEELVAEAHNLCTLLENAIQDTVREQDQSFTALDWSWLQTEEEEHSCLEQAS

[2] = biological target: Casein kinase II (Homo sapiens) (UniProt P67870+P68400+P19784); assay: Percentage CK2 activity remaining in the presence of 0.01uM inhibitor; format: protein-complex assay
[3] = biological target: Serine/threonine-protein kinase PAK 4 (Homo sapiens, UniProt O96013); assay: Percentage PAK4 activity remaining in the presence of 0.01uM inhibitor
[4] = biological target: Mitogen-activated protein kinase 9 (Homo sapiens, UniProt P45984); assay: Percentage JNK2 activity remaining in the presence of 0.01uM inhibitor
[5] = biological target: T2, Dual specificity tyrosine-phosphorylation-regulated kinase 3 (Homo sapiens) (UniProt O43781); assay: Percentage DYRK3 activity remaining in the presence of 0.01uM inhibitor
T2 sequence (whole entry): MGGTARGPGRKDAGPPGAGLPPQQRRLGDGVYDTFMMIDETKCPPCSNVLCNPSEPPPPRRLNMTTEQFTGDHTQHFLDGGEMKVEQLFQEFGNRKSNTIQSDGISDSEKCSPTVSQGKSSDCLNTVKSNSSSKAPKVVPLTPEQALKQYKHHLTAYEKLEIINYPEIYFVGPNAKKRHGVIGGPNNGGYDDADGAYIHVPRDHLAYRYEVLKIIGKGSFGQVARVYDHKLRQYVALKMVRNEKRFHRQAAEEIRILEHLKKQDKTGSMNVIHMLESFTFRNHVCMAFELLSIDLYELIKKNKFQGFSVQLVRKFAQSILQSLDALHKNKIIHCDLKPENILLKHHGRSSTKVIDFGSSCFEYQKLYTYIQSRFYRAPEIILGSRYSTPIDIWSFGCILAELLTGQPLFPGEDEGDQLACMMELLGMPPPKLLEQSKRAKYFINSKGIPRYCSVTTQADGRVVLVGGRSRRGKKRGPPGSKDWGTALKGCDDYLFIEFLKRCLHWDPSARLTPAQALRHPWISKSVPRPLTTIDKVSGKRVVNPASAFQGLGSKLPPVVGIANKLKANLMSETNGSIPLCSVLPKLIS

[6] = biological target: Serine/threonine-protein kinase PAK 5 (Homo sapiens) (UniProt Q9P286); assay: Percentage PAK5 activity remaining in the presence of 0.01uM inhibitor
[7] = biological target: T3, Serine/threonine-protein kinase Sgk1 (Homo sapiens) (UniProt O00141); assay: Percentage SGK1 activity remaining in the presence of 0.01uM inhibitor
T3 sequence (whole entry): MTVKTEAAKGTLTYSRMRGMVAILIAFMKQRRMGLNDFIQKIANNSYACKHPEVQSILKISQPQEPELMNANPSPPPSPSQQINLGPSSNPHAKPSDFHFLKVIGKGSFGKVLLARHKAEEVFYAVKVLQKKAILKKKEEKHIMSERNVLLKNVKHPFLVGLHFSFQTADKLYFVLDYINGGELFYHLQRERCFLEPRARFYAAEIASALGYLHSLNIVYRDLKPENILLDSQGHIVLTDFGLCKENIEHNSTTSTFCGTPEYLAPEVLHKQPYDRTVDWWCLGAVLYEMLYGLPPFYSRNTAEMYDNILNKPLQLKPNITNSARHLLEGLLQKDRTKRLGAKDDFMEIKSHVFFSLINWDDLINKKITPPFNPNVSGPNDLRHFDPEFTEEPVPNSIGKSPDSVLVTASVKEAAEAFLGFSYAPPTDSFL

[8] = biological target: MAP kinase-interacting serine/threonine-protein kinase 1 (Homo sapiens) (UniProt Q9BUB5); assay: Percentage MNK1 activity remaining in the presence of 0.01uM inhibitor
[9] = biological target: T4, Mitogen-activated protein kinase 15 (Homo sapiens) (UniProt Q8TD08); assay: Percentage ERK8 activity remaining in the presence of 0.01uM inhibitor
T4 sequence (whole entry): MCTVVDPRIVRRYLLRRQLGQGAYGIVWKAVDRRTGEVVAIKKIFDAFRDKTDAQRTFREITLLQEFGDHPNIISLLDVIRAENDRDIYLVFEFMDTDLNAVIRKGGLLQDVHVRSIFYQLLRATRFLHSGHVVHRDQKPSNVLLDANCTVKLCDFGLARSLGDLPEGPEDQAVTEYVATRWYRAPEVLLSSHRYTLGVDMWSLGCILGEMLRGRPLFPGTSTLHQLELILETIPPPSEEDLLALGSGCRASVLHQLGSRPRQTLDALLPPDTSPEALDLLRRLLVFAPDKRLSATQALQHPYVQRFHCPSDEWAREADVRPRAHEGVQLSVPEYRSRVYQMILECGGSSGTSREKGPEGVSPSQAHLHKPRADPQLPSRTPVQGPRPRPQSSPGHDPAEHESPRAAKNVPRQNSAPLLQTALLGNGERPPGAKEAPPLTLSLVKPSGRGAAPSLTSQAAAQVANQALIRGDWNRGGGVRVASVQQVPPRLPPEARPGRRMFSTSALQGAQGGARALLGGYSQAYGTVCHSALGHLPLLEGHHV

[10] = biological target: Mitogen-activated protein kinase 11 (Homo sapiens) (UniProt Q15759); assay: Percentage p38beta activity remaining in the presence of 0.01uM inhibitor
Mitogen-activated protein kinase 11 (Homo sapiens), sequence (Q15759 whole entry): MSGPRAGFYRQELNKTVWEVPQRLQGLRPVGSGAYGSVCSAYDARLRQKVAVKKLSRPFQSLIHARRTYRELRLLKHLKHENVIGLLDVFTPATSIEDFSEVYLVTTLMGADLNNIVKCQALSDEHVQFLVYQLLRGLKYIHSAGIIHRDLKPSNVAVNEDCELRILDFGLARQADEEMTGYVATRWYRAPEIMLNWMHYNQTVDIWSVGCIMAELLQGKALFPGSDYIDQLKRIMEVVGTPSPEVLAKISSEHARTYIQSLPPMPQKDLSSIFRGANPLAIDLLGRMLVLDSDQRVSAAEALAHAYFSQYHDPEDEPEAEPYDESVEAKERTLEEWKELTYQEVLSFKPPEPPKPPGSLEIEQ

Serine/threonine-protein kinase PAK 5 (Homo sapiens), sequence (Q9P286 whole entry, looked up): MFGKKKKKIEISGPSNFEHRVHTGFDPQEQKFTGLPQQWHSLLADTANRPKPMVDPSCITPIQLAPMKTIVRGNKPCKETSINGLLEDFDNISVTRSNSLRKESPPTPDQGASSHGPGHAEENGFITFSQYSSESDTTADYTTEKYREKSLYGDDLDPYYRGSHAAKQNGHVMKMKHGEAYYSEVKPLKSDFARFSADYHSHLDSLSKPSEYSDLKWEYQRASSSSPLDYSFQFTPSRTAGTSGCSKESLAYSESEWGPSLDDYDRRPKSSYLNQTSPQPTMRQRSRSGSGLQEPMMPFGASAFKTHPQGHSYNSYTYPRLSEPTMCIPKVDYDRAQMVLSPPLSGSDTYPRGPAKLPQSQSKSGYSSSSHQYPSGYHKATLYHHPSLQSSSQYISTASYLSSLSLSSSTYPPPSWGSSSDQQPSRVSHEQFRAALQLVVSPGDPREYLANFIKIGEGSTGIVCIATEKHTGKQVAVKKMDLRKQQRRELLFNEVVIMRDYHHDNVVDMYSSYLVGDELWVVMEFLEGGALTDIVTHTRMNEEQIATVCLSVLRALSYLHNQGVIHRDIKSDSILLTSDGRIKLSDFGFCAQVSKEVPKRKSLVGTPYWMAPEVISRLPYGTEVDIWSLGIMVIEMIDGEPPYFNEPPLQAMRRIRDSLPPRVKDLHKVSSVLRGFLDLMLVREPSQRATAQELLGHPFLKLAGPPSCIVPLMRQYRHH
MAP kinase-interacting serine/threonine-protein kinase 1 (Homo sapiens), sequence (Q9BUB5 whole entry, looked up): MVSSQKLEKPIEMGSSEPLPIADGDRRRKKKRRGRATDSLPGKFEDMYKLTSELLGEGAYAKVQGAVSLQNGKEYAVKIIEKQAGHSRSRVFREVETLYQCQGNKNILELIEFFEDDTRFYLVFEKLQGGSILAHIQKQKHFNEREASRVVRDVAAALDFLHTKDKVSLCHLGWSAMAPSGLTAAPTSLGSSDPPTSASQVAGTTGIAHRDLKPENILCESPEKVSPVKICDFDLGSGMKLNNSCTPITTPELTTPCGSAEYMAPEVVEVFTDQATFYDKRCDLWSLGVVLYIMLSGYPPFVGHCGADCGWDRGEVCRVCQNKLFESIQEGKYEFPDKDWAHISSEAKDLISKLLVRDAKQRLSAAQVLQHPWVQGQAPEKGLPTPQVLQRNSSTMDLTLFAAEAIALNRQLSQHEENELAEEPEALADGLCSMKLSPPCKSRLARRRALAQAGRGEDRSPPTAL
Mitogen-activated protein kinase 9, sequence (P45984 whole entry, looked up): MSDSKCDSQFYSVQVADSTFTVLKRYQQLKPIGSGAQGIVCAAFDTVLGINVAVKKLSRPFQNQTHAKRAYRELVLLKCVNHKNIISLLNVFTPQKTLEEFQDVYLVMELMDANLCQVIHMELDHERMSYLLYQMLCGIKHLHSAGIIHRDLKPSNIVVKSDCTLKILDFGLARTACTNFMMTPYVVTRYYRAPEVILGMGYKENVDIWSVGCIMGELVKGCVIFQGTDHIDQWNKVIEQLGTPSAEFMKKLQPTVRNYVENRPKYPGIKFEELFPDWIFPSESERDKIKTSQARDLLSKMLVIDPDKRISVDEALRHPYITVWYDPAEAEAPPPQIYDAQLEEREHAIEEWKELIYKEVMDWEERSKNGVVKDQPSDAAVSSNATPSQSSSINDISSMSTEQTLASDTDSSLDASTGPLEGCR
Serine/threonine-protein kinase PAK 4, sequence (O96013 whole entry, looked up): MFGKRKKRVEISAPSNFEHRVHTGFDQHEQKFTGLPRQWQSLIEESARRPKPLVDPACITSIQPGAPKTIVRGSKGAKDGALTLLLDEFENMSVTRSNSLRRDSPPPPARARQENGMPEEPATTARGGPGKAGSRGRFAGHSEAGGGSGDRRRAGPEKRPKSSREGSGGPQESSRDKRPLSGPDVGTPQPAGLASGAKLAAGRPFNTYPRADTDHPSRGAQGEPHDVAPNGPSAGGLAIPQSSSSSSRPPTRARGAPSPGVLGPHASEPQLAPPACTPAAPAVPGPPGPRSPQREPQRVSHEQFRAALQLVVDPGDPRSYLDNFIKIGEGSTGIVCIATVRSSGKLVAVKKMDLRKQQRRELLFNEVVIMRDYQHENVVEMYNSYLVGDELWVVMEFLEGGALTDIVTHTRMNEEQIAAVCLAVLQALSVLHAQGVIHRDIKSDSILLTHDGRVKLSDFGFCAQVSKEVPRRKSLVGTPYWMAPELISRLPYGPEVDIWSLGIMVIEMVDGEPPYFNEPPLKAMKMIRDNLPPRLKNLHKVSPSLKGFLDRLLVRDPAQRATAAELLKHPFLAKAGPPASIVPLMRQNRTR

Row | SMILES | Activity [1] | Activity [2] | Activity [3] | Activity [4] | Activity [5] | Activity [6] | Activity [7] | Activity [8] | Activity ([9]; filed as antagonist) | Activity [10] | Activity ([3]; filed as antagonist) | Activity ([6]; filed as antagonist) | Activity [9] | Activity ([5]; filed as antagonist)
1 | O=C(NCCCNc1nc(Nc2cccc(NC(=O)N3CCCC3)c2)ncc1I)c1cccs1 | 108% | 93% | 91% | 101% | 85% | 97% | 87% | 80% | 40% | 94% |  |  |  | 
2 | CN[C@@H]1C[C@H]2O[C@@](C)([C@@H]1OC)n1c3ccccc3c3c4c(c5c6ccccc6n2c5c31)C(=O)N[C@H]4O (stereo in doubt) | 86% | 92% |  | 92% | 84% |  | 83% | 85% |  | 105% | 33% | 36% | 92% | 
3 | Cc1n[nH]c2ccc(-c3cncc(OC[C@@H](N)Cc4c[nH]c5ccccc45)c3)cc12 | 93% | 96% | 99% | 94% |  | 104% | 78% | 120% |  | 114% |  |  | 61% | 41%
